Laboratory results reported in PubChem BioAssay (NCI).
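1) Cells in 96-well plates. 2) Compound, 48 h, 5 concentrations. 3) Linear interpolation between surrounding doses. 4) Unreached endpoint = highest concentration. At the GI50, growth is halved. Definition used: TGI = concentration required for complete inhibition of growth.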

What was measured:
Experiment in all cases: growth of human tumour cells (NCI), 48 h; in the data active = GI50 below about 0.43 µM; inactive = the rest
786-0 renal = test system: 786-0 renal
A498 renal = test system: A498 renal
A549 NSCLC = test system: A549 NSCLC
ACHN renal = test system: ACHN renal
BT-549 breast = test system: BT-549 breast
CAKI-1 renal = test system: CAKI-1 renal
CCRF-CEM leukemia = test system: CCRF-CEM leukemia
COLO 205 colon = test system: COLO 205 colon
DU-145 prostate = test system: DU-145 prostate
EKVX NSCLC = test system: EKVX NSCLC
HCC-2998 colon = test system: HCC-2998 colon
HCT-116 colon = test system: HCT-116 colon
HCT-15 colon = test system: HCT-15 colon
HL-60(TB) leukemia = test system: HL-60(TB) leukemia
HOP-62 NSCLC = test system: HOP-62 NSCLC
HOP-92 NSCLC = test system: HOP-92 NSCLC
HS 578T breast = test system: HS 578T breast
HT29 colon = test system: HT29 colon
IGROV1 ovarian = test system: IGROV1 ovarian
K-562 leukemia = test system: K-562 leukemia
KM12 colon = test system: KM12 colon
LOX IMVI melanoma = test system: LOX IMVI melanoma
M14 melanoma = test system: M14 melanoma
MALME-3M melanoma = test system: MALME-3M melanoma
MCF7 breast = test system: MCF7 breast
MDA-MB-231 breast = test system: MDA-MB-231 breast
MDA-MB-435 = test system: MDA-MB-435
MOLT-4 leukemia = test system: MOLT-4 leukemia
NCI-H226 lung = test system: NCI-H226 lung
NCI-H23 lung = test system: NCI-H23 lung
NCI-H460 lung = test system: NCI-H460 lung
NCI-H522 lung = test system: NCI-H522 lung
NCI/ADR-RES ovarian = test system: NCI/ADR-RES ovarian
OVCAR-4 ovarian = test system: OVCAR-4 ovarian
OVCAR-5 ovarian = test system: OVCAR-5 ovarian
OVCAR-8 ovarian = test system: OVCAR-8 ovarian
PC-3 prostate = test system: PC-3 prostate
RPMI-8226 leukemia = test system: RPMI-8226 leukemia
RXF 393 renal = test system: RXF 393 renal
SF-268 CNS = test system: SF-268 CNS
SF-295 CNS = test system: SF-295 CNS
SF-539 CNS = test system: SF-539 CNS
SK-MEL-2 melanoma = test system: SK-MEL-2 melanoma
SK-MEL-28 melanoma = test system: SK-MEL-28 melanoma
SK-MEL-5 melanoma = test system: SK-MEL-5 melanoma
SK-OV-3 ovarian = test system: SK-OV-3 ovarian
SN12C renal = test system: SN12C renal
SNB-19 CNS = test system: SNB-19 CNS
SNB-75 CNS = test system: SNB-75 CNS
SR leukemia = test system: SR leukemia
SW-620 colon = test system: SW-620 colon
T-47D breast = test system: T-47D breast
TK-10 renal = test system: TK-10 renal
U251 CNS = test system: U251 CNS
UACC-257 melanoma = test system: UACC-257 melanoma
UACC-62 melanoma = test system: UACC-62 melanoma
UO-31 renal = test system: UO-31 renal

Oc1cccc2ccc(-c3nnc(SCc4ccc(O)c5ncccc45)o3)nc12
2700 nM: TGI (SK-MEL-2 melanoma)
1550 nM: TGI (SK-MEL-5 melanoma)
inactive: GI50 (786-0 renal) 627 nM | GI50 (A498 renal) 1200 nM | GI50 (CAKI-1 renal) 428 nM | GI50 (COLO 205 colon) 1730 nM | GI50 (EKVX NSCLC) 807 nM | GI50 (HCC-2998 colon) 643 nM | GI50 (HL-60(TB) leukemia) 583 nM | GI50 (HT29 colon) 4.91 µM | GI50 (IGROV1 ovarian) 457 nM | GI50 (KM12 colon) 432 nM | GI50 (MDA-MB-231 breast) 1650 nM | GI50 (MOLT-4 leukemia) 457 nM | GI50 (NCI-H226 lung) 2410 nM | GI50 (NCI-H522 lung) 440 nM | GI50 (NCI/ADR-RES ovarian) 696 nM | GI50 (OVCAR-4 ovarian) 2000 nM | GI50 (OVCAR-5 ovarian) 2170 nM | GI50 (SK-MEL-2 melanoma) 513 nM | GI50 (SK-MEL-28 melanoma) 492 nM | GI50 (SK-OV-3 ovarian) 761 nM | GI50 (SW-620 colon) 452 nM | GI50 (T-47D breast) 428 nM | GI50 (TK-10 renal) 1990 nM | GI50 (UACC-62 melanoma) 467 nM
> 25.7 µM: TGI (SF-295 CNS)
> 40.2 µM: TGI (HOP-62 NSCLC)
> 27.1 µM: TGI (TK-10 renal)
active: GI50 (A549 NSCLC) 204 nM | GI50 (ACHN renal) 419 nM | GI50 (BT-549 breast) 110 nM | GI50 (CCRF-CEM leukemia) 329 nM | GI50 (DU-145 prostate) 117 nM | GI50 (HCT-116 colon) 71 nM | GI50 (HCT-15 colon) 158 nM | GI50 (HOP-62 NSCLC) 369 nM | GI50 (HOP-92 NSCLC) 173 nM | GI50 (HS 578T breast) 181 nM | GI50 (K-562 leukemia) 147 nM | GI50 (LOX IMVI melanoma) 120 nM | GI50 (M14 melanoma) 332 nM | GI50 (MALME-3M melanoma) 365 nM | GI50 (MCF7 breast) 367 nM | GI50 (MDA-MB-435) 294 nM | GI50 (NCI-H23 lung) 268 nM | GI50 (NCI-H460 lung) 39.3 nM | GI50 (OVCAR-8 ovarian) 302 nM | GI50 (PC-3 prostate) 175 nM | GI50 (RPMI-8226 leukemia) 266 nM | GI50 (RXF 393 renal) 350 nM | GI50 (SF-268 CNS) 226 nM | GI50 (SF-295 CNS) 315 nM | GI50 (SF-539 CNS) 275 nM | GI50 (SK-MEL-5 melanoma) 326 nM | GI50 (SN12C renal) 280 nM | GI50 (SNB-19 CNS) 273 nM | GI50 (SNB-75 CNS) 177 nM | GI50 (SR leukemia) 338 nM | GI50 (U251 CNS) 103 nM | GI50 (UACC-257 melanoma) 413 nM | GI50 (UO-31 renal) 299 nM
> 20.7 µM: TGI (BT-549 breast)
4.96 µM: TGI (COLO 205 colon)
> 24.5 µM: TGI (RXF 393 renal)
5.54 µM: TGI (NCI-H522 lung)
> 32.4 µM: TGI (MCF7 breast)
79.5 µM: TGI (M14 melanoma)
3.81 µM: TGI (MALME-3M melanoma)
5.28 µM: TGI (SK-OV-3 ovarian)
11.4 µM: TGI (NCI-H460 lung)
4.51 µM: TGI (UACC-257 melanoma)
7.24 µM: TGI (UO-31 renal)
7.32 µM: TGI (A498 renal)
> 22.6 µM: TGI (SNB-75 CNS)
707 nM: TGI (HOP-92 NSCLC)
19.7 µM: TGI (UACC-62 melanoma)
> 100 µM: TGI (786-0 renal) | TGI (A549 NSCLC) | TGI (ACHN renal) | TGI (CAKI-1 renal) | TGI (CCRF-CEM leukemia) | TGI (DU-145 prostate) | TGI (EKVX NSCLC) | TGI (HCC-2998 colon) | TGI (HCT-116 colon) | TGI (HCT-15 colon) | TGI (HL-60(TB) leukemia) | TGI (HT29 colon) | TGI (IGROV1 ovarian) | TGI (K-562 leukemia) | TGI (KM12 colon) | TGI (LOX IMVI melanoma) | TGI (MDA-MB-231 breast) | TGI (MDA-MB-435) | TGI (MOLT-4 leukemia) | TGI (NCI-H226 lung) | TGI (NCI-H23 lung) | TGI (NCI/ADR-RES ovarian) | TGI (OVCAR-4 ovarian) | TGI (OVCAR-5 ovarian) | TGI (OVCAR-8 ovarian) | TGI (PC-3 prostate) | TGI (RPMI-8226 leukemia) | TGI (SF-268 CNS) | TGI (SF-539 CNS) | TGI (SK-MEL-28 melanoma) | TGI (SN12C renal) | TGI (SNB-19 CNS) | TGI (SR leukemia) | TGI (SW-620 colon) | TGI (T-47D breast) | TGI (U251 CNS)
